Results on 15 compounds are retold here after US20240208992A1, “MACROCYCLES AS CFTR MODULATORS” (Idorsia Pharmaceuticals Ltd, priority 2021, published 2024).

In this assay the target is human F508del-CFTR (Homo sapiens, UniProt P13569, DEL508-508). The assay is described as follows: F508del-CFTR cell surface expression (corrector activity), DiscoveRx ß-galactosidase complementation chemiluminescence assay in recombinant U2OS cell line.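 As to all read-outs here: U2OS cells co-expressing ProLink-tagged F508del-CFTR and a membrane-anchored enzyme acceptor, where more surface CFTR restores β-galactosidase activity measured by chemiluminescence.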 The note with it: for EC50: EC50, F508del-CFTR cell surface expression, U2OS cells, 16h compound incubation, geomean values; for Emax: U2OS, in relation to Emax of corrector lumacaftor (=100%), arithmetic mean values.
Sequence of human F508del-CFTR (P13569 with tags, fused parts or gaps DEL508-508): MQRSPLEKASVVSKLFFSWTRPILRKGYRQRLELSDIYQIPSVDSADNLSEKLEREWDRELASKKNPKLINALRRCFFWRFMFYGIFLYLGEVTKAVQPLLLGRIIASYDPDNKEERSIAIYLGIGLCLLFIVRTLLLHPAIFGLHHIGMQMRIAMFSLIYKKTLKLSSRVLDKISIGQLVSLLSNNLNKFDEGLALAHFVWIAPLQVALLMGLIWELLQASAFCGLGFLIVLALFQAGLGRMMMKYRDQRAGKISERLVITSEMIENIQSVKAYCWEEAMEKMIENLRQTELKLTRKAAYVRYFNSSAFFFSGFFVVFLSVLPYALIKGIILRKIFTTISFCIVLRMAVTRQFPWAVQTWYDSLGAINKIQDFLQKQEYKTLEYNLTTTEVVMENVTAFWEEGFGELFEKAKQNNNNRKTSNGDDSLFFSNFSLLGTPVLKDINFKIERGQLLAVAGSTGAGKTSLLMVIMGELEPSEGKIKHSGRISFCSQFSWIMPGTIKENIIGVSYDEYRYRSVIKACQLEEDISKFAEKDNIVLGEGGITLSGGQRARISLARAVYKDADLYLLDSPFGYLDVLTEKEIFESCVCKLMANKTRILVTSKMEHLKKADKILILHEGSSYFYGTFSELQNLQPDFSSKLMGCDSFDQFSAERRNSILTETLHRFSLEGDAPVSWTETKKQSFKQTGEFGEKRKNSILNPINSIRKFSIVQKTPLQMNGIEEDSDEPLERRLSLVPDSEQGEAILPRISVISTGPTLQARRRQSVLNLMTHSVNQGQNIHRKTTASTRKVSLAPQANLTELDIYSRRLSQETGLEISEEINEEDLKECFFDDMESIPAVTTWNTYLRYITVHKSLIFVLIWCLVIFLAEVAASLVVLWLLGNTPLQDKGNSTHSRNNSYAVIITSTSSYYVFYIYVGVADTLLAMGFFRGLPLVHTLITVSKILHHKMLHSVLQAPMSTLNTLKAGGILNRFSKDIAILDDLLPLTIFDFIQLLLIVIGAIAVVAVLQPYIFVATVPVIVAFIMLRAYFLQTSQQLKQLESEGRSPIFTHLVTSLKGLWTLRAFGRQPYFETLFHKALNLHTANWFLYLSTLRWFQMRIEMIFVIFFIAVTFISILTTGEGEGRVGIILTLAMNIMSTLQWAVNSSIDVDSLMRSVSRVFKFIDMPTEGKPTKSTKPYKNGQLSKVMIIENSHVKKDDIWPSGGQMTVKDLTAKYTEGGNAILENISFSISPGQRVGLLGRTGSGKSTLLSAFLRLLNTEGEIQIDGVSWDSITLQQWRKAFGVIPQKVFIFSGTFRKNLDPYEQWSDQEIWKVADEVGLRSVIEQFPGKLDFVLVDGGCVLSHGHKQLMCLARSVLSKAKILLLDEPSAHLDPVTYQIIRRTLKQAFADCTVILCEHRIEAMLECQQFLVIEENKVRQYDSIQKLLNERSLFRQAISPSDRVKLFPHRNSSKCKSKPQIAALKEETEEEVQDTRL

With `Cc1cc(CCNC(=O)[C@@H]2CC(=O)N(C)[C@@H](CC(C)C)C(=O)N3CCCC[C@@H]3C(=O)N[C@H](Cc3ccccc3)COc3ccc4ncccc4c3C(=O)N2)on1` [Example 474, (9S,13S,19aR,22R)-22-benzyl-13-isobutyl-12-methyl-N-(2-(3-methylisoxazol-5-yl)ethyl)-7,11,14,20-tetraoxo-7,8,9,10,11,12,13,14,17,18,19,19a,20,21,22,23-hexadecahydro-16H-pyrido[2′,11:6,7][1]oxa[4,7,10,14]tetraazacycloheptadecino[16,17-f]quinoline-9-carboxamide], the EC50 amounted to 478 nM and the Emax stood at 359%.

For `Cc1cc(CCNC(=O)[C@@H]2CC(=O)N(C)[C@@H](CC(C)C)C(=O)N3CCN(S(=O)(=O)c4cccnc4)C[C@@H]3C(=O)N[C@H](Cc3ccccc3)COc3ccc4ccccc4c3C(=O)N2)on1` [Example 475, (4aR,7R,18S,22S)-7-benzyl-22-isobutyl-21-methyl-N-(2-(3-methylisoxazol-5-yl)ethyl)-5,16,20,23-tetraoxo-3-(pyridin-3-ylsulfonyl)-2,3,4,4a,5,6,7,8,16,17,18,19,20,21,22,23-hexadecahydro-1H-naphtho[1,2-p]pyrazino[2,1-f][1]oxa[4,7,10,14]tetraazacycloheptadecine-18-carboxamide], the EC50 turned out to be 992 nM and the Emax came to 314%.

Take `CC(C)C[C@H]1C(=O)N(C)C2(CC2)C(=O)N[C@H](Cc2ccccc2)COc2cnc3ccccc3c2C(=O)N[C@H](C(=O)NCCc2cc(C3CC3)no2)CC(=O)N1C` [Example 476, (3′S,7′S,13′R)-13′-benzyl-N-(2-(3-cyclopropylisoxazol-5-yl)ethyl)-7′-isobutyl-6′,9′-dimethyl-1′,5′,8′,11′-tetraoxo-2′,3′,4′,5′,6′,7′,8′,9′,11′,12′,13′,14′-dodecahydro-1′H-spiro[cyclopropane-1,10′-[1]oxa[4,7,10,14]tetraazacycloheptadecino[17,16-c]quinoline]-3′-carboxamide]: the EC50 was 333 nM and the Emax came to 344%.

Turning to `COc1nccc2c1C(=O)N[C@H](C(=O)NCCc1cc(C)no1)CC(=O)N(C)[C@@H](CC(C)C)C(=O)N1CCCC[C@@H]1C(=O)N[C@H](Cc1ccccc1)CO2` [Example 477, (7S,11S,17aR,20R)-20-benzyl-11-isobutyl-4-methoxy-10-methyl-N-(2-(3-methylisoxazol-5-yl)ethyl)-5,9,12,18-tetraoxo-5,6,7,8,9,10,11,12,15,16,17,17a,18,19,20,21-hexadecahydro-14H-dipyrido[2,1-f:3′,4′-p][1]oxa[4,7,10,14]tetraazacycloheptadecine-7-carboxamide], the EC50 turned out to be 754 nM and the Emax is 327%.

For the compound `COc1nccc2c1C(=O)N[C@H](C(=O)NCCc1c(F)cccc1F)CC(=O)N(C)[C@@H](CC(C)C)C(=O)N1CCCC[C@@H]1C(=O)N[C@H](Cc1ccccc1)CO2` [Example 478, (7S,11S,17aR,20R)-20-benzyl-N-(2,6-difluorophenethyl)-11-isobutyl-4-methoxy-10-methyl-5,9,12,18-tetraoxo-5,6,7,8,9,10,11,12,15,16,17,17a,18,19,20,21-hexadecahydro-14H-dipyrido[2,1-f:3′,4′-p][1]oxa[4,7,10,14]tetraazacycloheptadecine-7-carboxamide], the EC50 worked out at 168 nM and the Emax turned out to be 337%.

On to `COc1cncc(S(=O)(=O)N2CCN3C(=O)[C@H](CC(C)C)N(C)C(=O)C[C@@H](C(=O)NCCc4cc(C)no4)NC(=O)c4c(ccc5ccccc45)OC[C@@H](Cc4ccccc4)NC(=O)[C@H]3C2)c1` [Example 479, (4aR,7R,18S,22S)-7-benzyl-22-isobutyl-3-((5-methoxypyridin-3-yl)sulfonyl)-21-methyl-N-(2-(3-methylisoxazol-5-yl)ethyl)-5,16,20,23-tetraoxo-2,3,4,4a,5,6,7,8,16,17,18,19,20,21,22,23-hexadecahydro-1H-naphtho[1,2-p]pyrazino[2,1-f][1]oxa[4,7,10,14]tetraazacycloheptadecine-18-carboxamide], for which the EC50 worked out at 480 nM and the Emax came to 253%.

Turning to `Cc1cc(CCNC(=O)[C@@H]2CC(=O)N(C)[C@@H](CC(C)C)C(=O)N3CCCC[C@@H]3C(=O)N[C@H](Cc3ccccc3)COc3cnc4ccc(F)cc4c3C(=O)N2)on1` [Example 480, (9S,13S,19aR,22R)-22-benzyl-5-fluoro-13-isobutyl-12-methyl-N-(2-(3-methylisoxazol-5-yl)ethyl)-7,11,14,20-tetraoxo-7,8,9,10,11,12,13,14,17,18,19,19a,20,21,22,23-hexadecahydro-16H-pyrido[2′,11:6,7][1]oxa[4,7,10,14]tetraazacycloheptadecino[17,16-c]quinoline-9-carboxamide], the EC50 amounted to 201 nM and the Emax amounted to 276%.

As to `CC(C)C[C@H]1C(=O)N2CCCC[C@@H]2C(=O)N[C@H](Cc2ccccc2)COc2cnc3ccc(F)cc3c2C(=O)N[C@H](C(=O)NCCc2ccc(-n3nccn3)cc2)CC(=O)N1C` [Example 481, (9S,13S,19aR,22R)-N-(4-(2H-1,2,3-triazol-2-yl)phenethyl)-22-benzyl-5-fluoro-13-isobutyl-12-methyl-7,11,14,20-tetraoxo-7,8,9,10,11,12,13,14,17,18,19,19a,20,21,22,23-hexadecahydro-16H-pyrido[2′,1′:6,7][1]oxa[4,7,10,14]tetraazacycloheptadecino[17,16-c]quinoline-9-carboxamide], the EC50 came to 448 nM and the Emax turned out to be 225%.

`Cc1nc2ccc3c(c2o1)C(=O)N[C@H](C(=O)NCCc1c(F)cccc1F)CC(=O)N(C)[C@@H](CC(C)C)C(=O)N1CCCC[C@@H]1C(=O)N[C@H](Cc1ccccc1)CO3` [Example 482, (8S,12S,18aR,21R)-21-benzyl-N-(2,6-difluorophenethyl)-12-isobutyl-4,11-dimethyl-6,10,13,19-tetraoxo-6,7,8,9,10,11,12,13,16,17,18,18a,19,20,21,22-hexadecahydro-15H-oxazolo[4′,5′:5,6]benzo[1,2-p]pyrido[2,1-f][1]oxa[4,7,10,14]tetraazacycloheptadecine-8-carboxamide]: the EC50 was found to be 414 nM and the Emax stood at 247%.

With `COc1nccc2c1C(=O)N[C@H](C(=O)NCCc1noc(C3CC3)n1)CC(=O)N(C)[C@@H](CC(C)C)C(=O)N1CCCC[C@@H]1C(=O)N[C@H](Cc1ccccc1)CO2` [Example 483, (7S,11S,17aR,20R)-20-benzyl-N-(2-(5-cyclopropyl-1,2,4-oxadiazol-3-yl)ethyl)-11-isobutyl-4-methoxy-10-methyl-5,9,12,18-tetraoxo-5,6,7,8,9,10,11,12,15,16,17,17a,18,19,20,21-hexadecahydro-14H-dipyrido[2,1-f:3′,4′-p][1]oxa[4,7,10,14]tetraazacycloheptadecine-7-carboxamide], the EC50 came out at 517 nM and the Emax amounted to 311%.

`CC(C)C[C@H]1C(=O)N2CCCC[C@@H]2C(=O)N[C@H](Cc2ccccc2)COc2nc3ccccn3c2C(=O)N[C@H](C(=O)NCCc2c(F)cccc2F)CC(=O)N1C` [Example 484, (7S,11S,22R,24aR)-22-benzyl-N-(2,6-difluorophenethyl)-7-isobutyl-8-methyl-6,9,13,24-tetraoxo-1,3,4,6,7,8,9,10,11,12,13,21,22,23,24,24a-hexadecahydro-2H-pyrido[2,1-f]pyrido[2′,1′:2,3]imidazo[4,5-p][1]oxa[4,7,10,14]tetraazacycloheptadecine-11-carboxamide]: the EC50 amounted to 251 nM and the Emax came to 117%.

Take `CC(C)C[C@H]1C(=O)N2CCCC[C@@H]2C(=O)N[C@H](Cc2ccccc2)COc2ccc3ncn(C)c3c2C(=O)N[C@H](C(=O)NCCc2c(F)cccc2F)CC(=O)N1C` [Example 485, (8S,12S,18aR,21R)-21-benzyl-N-(2,6-difluorophenethyl)-12-isobutyl-5,11-dimethyl-6,10,13,19-tetraoxo-6,7,8,9,10,11,12,13,16,17,18,18a,19,20,21,22-hexadecahydro-5H,15H-imidazo[4′,5′:5,6]benzo[1,2-p]pyrido[2,1-f][1]oxa[4,7,10,14]tetraazacycloheptadecine-8-carboxamide]: the EC50 was 238 nM and the Emax came out at 204%.

Regarding `CC(C)C[C@H]1C(=O)N2CCCC[C@@H]2C(=O)N[C@H](Cc2ccccc2)COc2ccc3ncccc3c2C(=O)N[C@H](C(=O)NCCc2noc(C3CC3)n2)CC(=O)N1C` [Example 486, (9S,13S,19aR,22R)-22-benzyl-N-(2-(5-cyclopropyl-1,2,4-oxadiazol-3-yl)ethyl)-13-isobutyl-12-methyl-7,11,14,20-tetraoxo-7,8,9,10,11,12,13,14,17,18,19,19a,20,21,22,23-hexadecahydro-16H-pyrido[2′,11:6,7][1]oxa[4,7,10,14]tetraazacycloheptadecino[16,17-f]quinoline-9-carboxamide], the EC50 came out at 201 nM and the Emax was determined as 303%.

For the compound `Cc1cc(CCNC(=O)[C@@H]2CC(=O)N(C)[C@@H](CC(C)C)C(=O)N3CCCC[C@@H]3C(=O)N[C@@H](Cc3ccccc3)COc3cnc4ccccc4c3C(=O)N2)on1` [Example 487, (9S,13S,19aR,22S)-22-benzyl-13-isobutyl-12-methyl-N-(2-(3-methylisoxazol-5-yl)ethyl)-7,11,14,20-tetraoxo-7,8,9,10,11,12,13,14,17,18,19,19a,20,21,22,23-hexadecahydro-16H-pyrido[2′,1′:6,7][1]oxa[4,7,10,14]tetraazacycloheptadecino[17,16-c]quinoline-9-carboxamide], the EC50 turned out to be 1340 nM and the Emax worked out at 147%.

For the compound `COc1cccc(CCNC(=O)[C@@H]2CC(=O)N(C)[C@@H](CC(C)C)C(=O)N(C)C3(CC3)C(=O)N[C@H](Cc3ccccc3)COc3ccc(OC)nc3C(=O)N2)c1` [Example 488, (3′R,9′S,13′S)-3′-benzyl-9′-isobutyl-17′-methoxy-N-(3-methoxyphenethyl)-7′,10′-dimethyl-5′,8′,11′,15′-tetraoxo-2′,3′,4′,5′,8′,9′,10′,11′,12′,13′,14′,15′-dodecahydro-7′H-spiro[cyclopropane-1,6′-pyrido[2,3-p][1]oxa[4,7,10,14]tetraazacycloheptadecine]-13′-carboxamide], the EC50 worked out at 910 nM and the Emax was 270%.

The term EC50 denotes the concentration giving half of the maximal effect. By Emax is commonly meant the size of the effect at its maximum, as opposed to the concentration needed.
